# Paper PMC11206987, “Investigation of the Efficacy of Benzylidene-3-methyl-2-thioxothiazolidin-4-one Analogs with Antioxidant Activities on the Inhibition of Mushroom and Mammal Tyrosinases” (Molecules, 2024)
# What was measured:
# Type in all cases: cell-based, murine
# Settings in all cases: 72 h
# [1] = molecular target: T1, B16F10 cellular tyrosinase (Mus musculus, UniProt P11344); experiment: Cellular tyrosinase activity assay in B16F10 cells stimulated with IBMX plus α-MSH
# T1 construct: host or cells: B16F10 cells
# T1 sequence (P11344 19-533): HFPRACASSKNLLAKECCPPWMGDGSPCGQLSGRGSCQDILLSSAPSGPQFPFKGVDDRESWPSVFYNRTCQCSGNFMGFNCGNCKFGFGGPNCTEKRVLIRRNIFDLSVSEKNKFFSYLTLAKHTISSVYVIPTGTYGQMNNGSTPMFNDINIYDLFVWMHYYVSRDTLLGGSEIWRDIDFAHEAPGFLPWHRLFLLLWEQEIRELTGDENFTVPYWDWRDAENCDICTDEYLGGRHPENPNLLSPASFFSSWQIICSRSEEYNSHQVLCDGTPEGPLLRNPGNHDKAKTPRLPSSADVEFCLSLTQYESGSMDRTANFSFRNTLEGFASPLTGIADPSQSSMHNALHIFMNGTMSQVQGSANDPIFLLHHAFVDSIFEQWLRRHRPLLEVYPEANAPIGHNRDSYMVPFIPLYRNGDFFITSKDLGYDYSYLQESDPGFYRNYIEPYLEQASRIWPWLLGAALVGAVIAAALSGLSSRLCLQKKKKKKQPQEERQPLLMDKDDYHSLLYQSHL
# Method: Analogs 1, 3, and 5 were exposed to B16F10 cells at various concentrations (20, 10, 5, and 0 µM) before exposure to IBMX (200 µM; 3-isobutyl-1-methylxanthine) and α-MSH (1 µM; α-melanocyte-stimulating hormone). After incubation (72 h), B16F10 cellular tyrosinase activity was determined. […] It was examined whether the cellular tyrosinase inhibition of the BMTTZD analogs could influence B16F10 cellular melanin contents.
# Effects on B16F10 tyrosinase inhibition were evaluated as previously described. A 6-well plate containing 1 × 10^5 B16F10 cells/well was cultivated for 23 h under conditions identical to those of the cell culture. […] The cells were cultivated for 72 h. After washing 2 times with PBS, the cells were lysed in a 100 µL lysis buffer, including phenylmethylsulfonyl fluoride (5 µL; 1 mM), Triton X-100 (5 µL; 1%), and phosphate buffer (90 µL; 50 mM (pH 6.5)). After 30 min incubation at −80 °C, the cell lysates were centrifuged at 4 °C for 30 min. The supernatants (80 µL) of the lysates were moved to each well of a microplate and mixed with 20 µL 10 mM L-dopa.
# [2] = tested on: B16F10 cells; experiment: Melanin content assay in B16F10 cells
# Method: We examined whether the ability of analogs 1, 3, and 5 to inhibit intracellular tyrosinase activity could affect intracellular melanin levels. B16F10 cells were utilized as mammalian cells. IBMX and α-MSH were used at 200 µM and 1 µM, respectively, to increase melanin biosynthesis. […] For the intracellular melanin content determination, the absorbance at 405 nm was evaluated after 72 h of incubation.
# The effect of BMTTZD analogs on melanin biosynthesis was investigated following a previously described method. A 6-well microplate containing 1 × 10^5 B16F10 cells/well was cultivated for 23 h under conditions identical to those of the cell culture. […] After exposure to IBMX and α-MSH, B16F10 cells were cultivated for 72 h at 37 °C. The cells were rinsed 2 times with PBS, treated with 1N-NaOH aqueous solution (100 µL), and cultivated at 60 °C for 1 h. The lysates were moved to a microplate. At 405 nm, the well absorbance was measured utilizing a VersaMax® reader. Each experiment was carried out three times independently.
# [3] = molecular target: T1, B16F10 cellular tyrosinase; experiment: In situ cellular tyrosinase activity assay using L-dopa staining
# Method: Because tyrosinase plays a critical role in melanogenesis, in situ intracellular tyrosinase activity was measured. The in situ intracellular tyrosinase activity was evaluated in B16F10 cells following a previously reported procedure. Stimulators (α-MSH plus IBMX) were exposed to cells to raise tyrosinase activity levels, and analogs 1, 3, and 5 were treated at 20, 10, and 5 µM for 72 h. After fixation and permeabilization using paraformaldehyde and Triton X-100, the cells were stained with L-dopa.
# A 24-well plate containing 1 × 10^3 B16F10 cells/well was cultivated for 24 h under conditions identical to those of the cell culture. […] The cells were then cultivated under conditions identical to those of the cell culture for 72 h. Cultivated cells were fixed for 40 min with paraformaldehyde (4%), washed 2 times with PBS, and permeabilized with Triton X-100 (0.1%) for 2 min. After washing 2 times with PBS, the cells in the 24-well plate were stained with a 2 mM L-dopa aqueous solution (500 µL/well) for 2 h at 37 °C. Staining was photographed and analyzed utilizing a camera connected to a microscope (Motic, Hong Kong).
smiles,measurement,setting,value
"CN1C(=O)/C(=C/c2ccc(O)cc2O)SC1=S [Analog 3, (Z)-5-(2,4-Dihydroxybenzylidene)-3-methyl-2-thioxothiazolidin-4-one]",effect on stimulator-induced cellular tyrosinase activity,"[1]; 5, 10, 20 µM, IBMX plus α-MSH",concentration-dependently and significantly reduced
same,cellular tyrosinase inhibition compared with kojic acid (20 µM),[1]; analog at 10 µM,slightly more strongly than kojic acid
same,cellular tyrosinase inhibition compared with kojic acid (20 µM),[1]; analog at highest concentration tested (20 µM),stronger inhibitory effects than kojic acid
same,decrease of intracellular melanin contents,"[2]; 20 µM, IBMX plus α-MSH (raised melanin 4.4-fold)",2.0 fold
same,effect on intracellular melanin contents enhanced by IBMX plus α-MSH,"[2]; 5, 10, 20 µM",significantly reduced the melanin contents
same,in situ intracellular tyrosinase inhibition compared with kojic acid,[3]; 20 µM,tyrosinase inhibition stronger than did kojic acid
same,effect on stimulator-raised in situ intracellular tyrosinase activity (L-dopa staining),"[3]; analogs 5, 10, 20 µM, kojic acid 20 µM",concentration-dependently reduced the stimulator-enhanced intracellular tyrosinase inhibition
